Results as given in patent US11084790B2, “Insoluble complex or solvate thereof, pharmaceutical composition and use thereof” (Fruithy Holdings Limited, priority 2017, dated 2021).
In brackets after ≈: the same amount, converted by molar mass.

Assay: Test on the solubility in a simulated body fluid
Format: physicochemical
Conditions: for Compound concentration: Bupivacaine / Compound concentration: naphthol phosphate / solubility / Compound concentration: DTTA / Compound concentration: Ropivacaine / Compound concentration: Pamoic acid: 0.01 M PBS pH 7.4, 37° C.
Experimental: Test on the Solubility in a Simulated Body Fluid
The concentration of the drug dissolved in the PBS buffered solution was determined with an HPLC-a method.

SMILES	Compound concentration: Bupivacaine (5 min) [µM]	Compound concentration: Bupivacaine (15 min) [µM]	Compound concentration: Bupivacaine (30 min) [µM]	Compound concentration: Bupivacaine (1 h) [µM]	Compound concentration: Bupivacaine (2 h) [µM]	Compound concentration: Bupivacaine (6 h) [µM]	Compound concentration: Bupivacaine (24 h) [µM]	stability of the suspension (ratio between acid radical and basic group) (simulated body fluid)	solubility (simulated body fluid)	Compound concentration: DTTA (5 min) [µM]	Compound concentration: DTTA (15 min) [µM]	Compound concentration: DTTA (30 min) [µM]	Compound concentration: DTTA (1 h) [µM]	Compound concentration: DTTA (2 h) [µM]	Compound concentration: DTTA (6 h) [µM]	Compound concentration: DTTA (24 h) [µM]	other results
CCCN1CCCC[C@H]1C(=O)Nc1c(C)cccc1C [Ropivacaine free base, reference compound]																	solubility at 24 h (phosphate buffered saline (simulated body fluid), 37 °C, aqueous buffer, thermodynamic from solid, simulated body fluid, 0.01 M PBS at pH 7.4, read-out: Saturated solubility): 1360 µM (≈ 373 µg/mL)
CCCCN1CCCCC1C(=O)Nc1c(C)cccc1C.O=P1(O)Oc2ccc3ccccc3c2-c2c(ccc3ccccc23)O1 [Preparation Example 7, bupivacaine binaphthol phosphate]	263	271.4	310.5	280.7	314.8	317.7	268.4	stable	about 0.3 mM								Compound concentration: naphthol phosphate (5 min): 293.5 µM; Compound concentration: naphthol phosphate (15 min): 275.6 µM; Compound concentration: naphthol phosphate (30 min): 264.3 µM; Compound concentration: naphthol phosphate (1 h): 263.3 µM; Compound concentration: naphthol phosphate (2 h): 278.9 µM; Compound concentration: naphthol phosphate (6 h): 288.4 µM; Compound concentration: naphthol phosphate (24 h): 264.6 µM
CCCCN1CCCCC1C(=O)Nc1c(C)cccc1C.CCCCN1CCCCC1C(=O)Nc1c(C)cccc1C.Cc1ccc(C(=O)OC(C(=O)O)C(OC(=O)c2ccc(C)cc2)C(=O)O)cc1 (centres unmarked) [Preparation Example 4, bis(bupivacaine) di-p-toluoyl tartarate]	11389.4	12009.1	11426.9	11256.7	11278.1	11851.8	11693.3			5161	5399.5	5135	5084.8	5068.3	5312	5219.7	
CCCN1CCCC[C@H]1C(=O)Nc1c(C)cccc1C.Cc1ccc(C(=O)OC(C(=O)O)C(OC(=O)c2ccc(C)cc2)C(=O)O)cc1 (centres unmarked) [Preparation Example 5, mono(ropivacaine) di-p-toluoyl tartarate]										6676.8	6612.8	6704	6752.1	6988	6971.8	7073.8	Compound concentration: Ropivacaine (5 min): 7268.7 µM; Compound concentration: Ropivacaine (15 min): 7215.5 µM; Compound concentration: Ropivacaine (30 min): 7287.2 µM; Compound concentration: Ropivacaine (1 h): 7343.7 µM; Compound concentration: Ropivacaine (2 h): 7630.4 µM; Compound concentration: Ropivacaine (6 h): 7604.1 µM; Compound concentration: Ropivacaine (24 h): 7648.9 µM
CCCCN1CCCCC1C(=O)Nc1c(C)cccc1C.CCCCN1CCCCC1C(=O)Nc1c(C)cccc1C.O=C(O)c1cc2ccccc2c(Cc2c(O)c(C(=O)O)cc3ccccc23)c1O [bis(bupivacaine) pamoate]																	Saturated solubility (simulated body fluid, 0.01 M PBS at pH 7.4): 300 µM
CCCCN1CCCCC1C(=O)Nc1c(C)cccc1C.CCCCN1CCCCC1C(=O)Nc1c(C)cccc1C.O=C(O)c1cc2ccccc2c(Cc2c(O)c(C(=O)O)cc3ccccc23)c1O [Preparation Example 29, bis(bupivacaine) pamoate]	159.8	196.9	241.5	269.9	271.3	275.1	305	stable	about 0.3 mM								Compound concentration: Pamoic acid (5 min): 78.2 µM; Compound concentration: Pamoic acid (15 min): 97.3 µM; Compound concentration: Pamoic acid (30 min): 122.1 µM; Compound concentration: Pamoic acid (1 h): 119.5 µM; Compound concentration: Pamoic acid (2 h): 140 µM; Compound concentration: Pamoic acid (6 h): 145 µM; Compound concentration: Pamoic acid (24 h): 151.6 µM
